Measurements as given in US5674909A, “Derivatives of 2-amino-1,2,3,4-tetrahydronaphthalene active on the cardiovascular system” (Zambon Group, priority 1994, dated 1997).

How the values were obtained:
D2 receptor = D2 receptor (Rattus norvegicus, UniProt P61169); assay: biochemical; assay type: binding, rat (Sprague-Dawley); settings: [3H]-domperidone 0.3 nM, rat striated membranes, 0.01% BSA, 37° C., 30 minutes; read-out: Affinity [K1 (nM)] towards D2 receptor
Procedure: (§1) The tissue were homogenized in 50 mM Tris/HCl buffer at pH 7.4 (1:100 w/v).
(§2) The homogenate was centrifuged and the pellet resuspended, recentrifuged and resuspended again in 50 mM Tris/HCl buffer at pH 7.4 containing 120 mM NaCl, 5 mM KCl, 2 mM CaCl2 and 1 mM MgCl2.
Furthermore, bovine serum albumine (BSA) (0.01%) was added.
The mixture was incubated at 37° C. for 30 minutes for each concentration of tested compounds.

[1] = system: D1 -like (Rabbit Splenic Artery); assay: D1-like activity in the Rabbit Splenic Artery (RSA) test; settings: agonist activity at the peak of the effect; contracted with U46619 0.1 μM
Procedure: Arterial rings were prepared according to Semeraro et al., Naunyn. Schmied. Arch. Pharmacol., 1990, 342, 539.
The arterial preparations were contracted with U46619 (9,11-di-deoxy-11α,9α-epoxy-methanoprostaglandin F2α) at the submaximal concentration 0.1 μM.
(§3) The tested compounds were cumulatively administered.
(§4) Ref. A was used as reference substance.
(§5) Agonist activity evaluated at the peak of the effect and expressed as potency ratio (EC50 of Ref. A/EC50 of tested compound) is reported in table 2.

D1 receptor = D1 receptor (Rattus norvegicus, UniProt P18901); assay: biochemical; assay type: binding, rat (Sprague-Dawley); settings: [3H]-SCH23390 0.2 nM, rat striated membranes, pH 7.4, 37° C., 20 minutes; read-out: Affinity [K1 (nM)] towards D1 receptor
Chain of D1 receptor (P18901 whole entry): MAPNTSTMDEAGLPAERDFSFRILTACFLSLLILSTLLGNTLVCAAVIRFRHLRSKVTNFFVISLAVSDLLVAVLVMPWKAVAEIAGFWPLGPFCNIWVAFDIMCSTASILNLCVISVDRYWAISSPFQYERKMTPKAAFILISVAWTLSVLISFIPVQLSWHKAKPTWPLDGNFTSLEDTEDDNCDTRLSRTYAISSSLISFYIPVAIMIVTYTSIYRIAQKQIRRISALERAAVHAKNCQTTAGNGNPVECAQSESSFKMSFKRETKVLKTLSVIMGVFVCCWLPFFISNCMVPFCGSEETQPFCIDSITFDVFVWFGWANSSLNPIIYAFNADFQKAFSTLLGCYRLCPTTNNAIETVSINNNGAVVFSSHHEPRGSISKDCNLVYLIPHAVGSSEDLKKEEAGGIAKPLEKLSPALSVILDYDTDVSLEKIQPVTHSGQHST
Procedure: as §1, §2
The mixture was incubated with different concentrations of the tested compounds at 37° C. for 20 minutes, filtered under vacuum through Whatman GF/C filters and then washed 4 times with 5 ml of 50 mM Tris/HCl buffer (pH 7.4) cooled with ice.

[2] = target: T1, D2 -like (Rabbit Ear Artery) (Oryctolagus cuniculus, UniProt G1T1Q0); assay: D2-like activity in the Rabbit Ear Artery (REA) test; set-up: species or system New Zealand rabbit; settings: agonist activity at the peak of the effect; electrically stimulated
T1 construct: the central ear artery was dissected into 3 mm long rings; from tissue; host or cells: rabbit central ear artery rings (male New Zealand rabbits), electrically stimulated
T1 sequence (G1T1Q0 1-443): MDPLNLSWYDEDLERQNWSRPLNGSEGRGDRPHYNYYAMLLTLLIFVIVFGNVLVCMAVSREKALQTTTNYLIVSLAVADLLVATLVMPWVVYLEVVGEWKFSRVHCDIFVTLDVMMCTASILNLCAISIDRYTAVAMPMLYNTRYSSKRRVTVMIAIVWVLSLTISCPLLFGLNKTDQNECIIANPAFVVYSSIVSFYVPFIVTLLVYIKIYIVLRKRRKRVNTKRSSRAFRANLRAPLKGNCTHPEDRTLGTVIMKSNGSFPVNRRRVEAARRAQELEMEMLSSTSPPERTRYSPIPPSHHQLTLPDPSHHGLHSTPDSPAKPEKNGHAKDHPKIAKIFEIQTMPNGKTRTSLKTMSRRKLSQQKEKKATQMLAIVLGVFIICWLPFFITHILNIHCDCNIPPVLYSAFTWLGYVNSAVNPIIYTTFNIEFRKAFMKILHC
Procedure: Arterial rings were prepared according to the method described by Steinsland et al., Science, 1978, 443, 199, modified as follows. Male New Zealand rabbits weighing 2.5-3 Kg were sacrificed by intravenous injection of an excess of pentobarbital sodium and exsanguinated. The two ears were taken away and the central ear artery was dissected into 3 mm long rings.
These preparations were set up in a 25 ml organ bath containing Krebs solution (mM/l): NaCl 118, KCl 4.7, CaCl2 2.5, MgSO4 1.2, NaHCO3 25, KH2 PO4 1.2, glucose 11.1, equilibrated with 95% 02 -5% CO2 and maintained at 35°±1° C.
Krebs solution was medicated with EDTA (10 μM) to prevent cathecolamine oxydation, desipramine (0.1 μM) and corticosterone (30 μM), to block neuronal and extraneuronal cathecolamine uptake. The preparations were electrically stimulated (10 Hz, 1 msec, 40-80 mA, 500 msec duration) at 5 minutes intervals.
as §3, §4, §5

[3] = system: spontaneously hypertensive rats; assay: In vivo antihypertensive activity, i.v., spontaneously hypertensive rats; set-up: species or system rat (spontaneously hypertensive, Charles River); settings: 30 nmol/kg i.v. bolus; recorded over 4 hours; basal MBP 190-200 mmHg; Ref. A n = 6, Compound 22 n = 7
Procedure: Male spontaneously hypertensive rats (Charles River) more than 14 weeks old were used.
Catheters were inserted into the right carotid artery and into the left giugular vein under barbituric anesthesia.
The animals were allowed to recover overnight.
The tested compounds were administered into the left giugular vein by bolus injection.
Control animals were injected with an equal volume of vehicle. The induced effect was continuously recorded over a period of 4 hours.
Basal values of Mean Blood Pressure (MBP) were in the range of 190-200 mmHg.
The antihypertensive activity of compound 22 expressed as MBP reduction compared with the antihypertensive activity of Ref. A is reported in the following table.

[4] = Fitton and Benfield, Drugs 1990; cited from earlier work
dopaminergic receptors = settings: Fitton and Benfield, Drugs 1990; cited from earlier work

Chain of D2 receptor (P61169 whole entry): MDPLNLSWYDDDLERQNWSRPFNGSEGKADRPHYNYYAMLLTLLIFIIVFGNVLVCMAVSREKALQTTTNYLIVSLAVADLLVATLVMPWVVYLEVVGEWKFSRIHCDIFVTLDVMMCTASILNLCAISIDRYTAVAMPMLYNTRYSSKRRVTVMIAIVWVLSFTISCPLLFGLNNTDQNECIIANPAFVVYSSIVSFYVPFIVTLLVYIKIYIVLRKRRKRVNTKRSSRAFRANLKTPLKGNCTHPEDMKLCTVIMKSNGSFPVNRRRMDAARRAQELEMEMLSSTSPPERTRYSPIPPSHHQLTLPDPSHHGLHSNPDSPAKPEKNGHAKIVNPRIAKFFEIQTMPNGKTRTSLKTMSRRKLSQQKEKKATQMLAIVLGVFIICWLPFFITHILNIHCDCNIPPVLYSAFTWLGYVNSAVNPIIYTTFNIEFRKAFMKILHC

Structure (SMILES) | Ki (D2 receptor) | D1 -like (RSA) potency ratio (EC50 of Ref. A/EC50 of tested compound) [1] | Ki (D1 receptor) | D2 -like (REA) potency ratio (EC50 of Ref. A/EC50 of tested compound) [2] | MBP reduction, mean ± S.E. [3] | absorption when administered by oral route [4] | agonist activity at dopaminergic receptors compared with dopamine (dopaminergic receptors)
Br.Br.Br.CCCN(CCCCCCN1CCN(Cc2ccc(O)cc2)CC1)[C@H]1CCc2c(ccc(O)c2O)C1 [Compound 15, (S)-N-propyl-N-[6-[4-(4-hydroxyphenylmethyl)piperazin-1-yl]hexyl]-5,6-dihydroxy-1,2,3,4-tetrahydro-2-naphthylamine trihydrobromide] | 0.24 nM | 0.9 | 119 nM | 0.5 |  |  | 
Br.Br.CCCN(CCCCCCNCCc1ccc(S(C)(=O)=O)cc1)[C@H]1CCc2c(ccc(O)c2O)C1 [Compound 22, (S)-N-propyl-N-[6-[2-(4-methylsulphonylphenyl)ethylamino]hexyl]-5,6-dihydroxy-1,2,3,4-tetrahydro-2-naphthylamine dihydrobromide] |  | 14 |  | 3 | -61.7 ± 5.7 mmHg |  | 
CCCN(CCCCCCNCCOc1ccc(O)cc1)[C@H]1CCc2c(ccc(O)c2O)C1.Cl.Cl [Compound 24, (S)-N-propyl-N-[6-[2-(4-hydroxyphenoxy)ethylamino]hexyl]-5,6-dihydroxy-1,2,3,4-tetrahydro-2-naphthylamine dihydrochloride] | 1.8 nM | 17 | 45 nM | 3 |  |  | 
NCCc1ccc(O)c(O)c1 [Dopamine] |  |  |  |  |  | not absorbed when administered by oral route | 
Oc1ccc(CCNCCCCCCNCCc2ccccc2)cc1O [Dopexamine, dopexamine] |  |  |  |  |  | not absorbed when administered by oral route | less active than dopamine
CCCN(CCCCCCNCCc1ccccc1OC)[C@H]1CCc2c(ccc(O)c2O)C1.Cl.Cl [Ref. A, (S)-N-propyl-N-[6-[2-(2-methoxyphenyl)ethylamino]hexyl]-5,6-dihydroxy-1,2,3,4-tetrahydro-2-naphthylamine dihydrochloride, reference compound] | 0.8 nM | 1 | 158 nM |  | -25 ± 1.1 mmHg |  | 

Continued, in another order:

Ki (D2 receptor) | D1 -like (RSA) potency ratio (EC50 of Ref. A/EC50 of tested compound) [1] | Ki (D1 receptor) | D2 -like (REA) potency ratio (EC50 of Ref. A/EC50 of tested compound) [2] | Structure (SMILES) | MBP reduction, mean ± S.E. [3] | absorption when administered by oral route [4] | agonist activity at dopaminergic receptors compared with dopamine (dopaminergic receptors)
0.4 nM | 10 | 29 nM | 14 | Br.Br.CCCN(CCCCCCNCCCc1ccc(O)c(O)c1)[C@H]1CCc2c(ccc(O)c2O)C1 [Compound 13, (S)-N-propyl-N-[6-[3-(3,4-dihydroxyphenyl)propylamino]hexyl]-5,6-dihydroxy-1,2,3,4-tetrahydro-2-naphthylamine dihydrobromide] |  |  | 
0.2 nM | 3 | 178 nM | 0.8 | Br.Br.CCCN(CCCCCCNCCCc1ccccc1O)[C@H]1CCc2c(ccc(O)c2O)C1 [Compound 16, (S)-N-propyl-N-[6-[3-(2-hydroxyphenyl)propylamino]hexyl]-5,6-dihydroxy-1,2,3,4-tetrahydro-2-naphthylamine dihydrobromide] |  |  | 
0.6 nM | 1.7 | 130 nM | 1.3 | CCCN(CCCCCCOCCc1ccc(O)c(O)c1)[C@H]1CCc2c(ccc(O)c2O)C1.Cl [Compound 25, (S)-N-propyl-N-[6-[2-(3,4-dihydroxyphenyl)ethoxy]hexyl]-5,6-dihydroxy-1,2,3,4-tetrahydro-2-naphthylamine hydrochloride] |  |  | 
2.1 nM | 2.5 | 356 nM | 5 | Br.CCCN(CCCCCCNC(=O)Cc1ccc(O)c(O)c1)[C@H]1CCc2c(ccc(O)c2O)C1 [Compound 34, (S)-N-propyl-N-[6-[(3,4-dihydroxyphenyl)acetylamino]hexyl]-5,6-dihydroxy-1,2,3,4-tetrahydro-2-naphthylamine hydrobromide] |  |  | 
